Laboratory results as given in patent publication US6372297B1, “Wood preservative oxathiazines” (Uniroyal Chemical Company, Inc., priority 1993, dated 2002).
Like-named read-outs stand apart in the source and are kept apart here.

Key:
Assay type in all cases: cell-based
[1] = system: Flavobacterium sp.; assay: Wood preservative efficacy against bacteria and yeasts, tryptose agar plates; design: key: 0 = growth equal to control, 1 = growth inhibited, 2 = no growth
Experimental: (§1) Compositions were prepared by dissolving the compounds shown in Table 1 in 50% ethanol and further diluting with sterile distilled water. […] After cooling, the medium was inoculated with the bacteria listed below. After sufficient growth of the untreated cultures, the compounds were evaluated using the following rating system: 0=growth equal to control 1=inhibition of growth by the compound 2=no growth under the influence of the compound. In this Table, the higher numbers are the most preferred species. Flavobacterium sp. (gram neg)

[2] = system: Escherichia coli; assay: as above; design: key: 0 = growth equal to control, 1 = growth inhibited, 2 = no growth
Experimental: as §1, with “Escherichia coli” for “Flavobacterium sp.”, “[…])” for “neg)”

[3] = system: Trichoderma viride; assay: Wood preservative efficacy against fungi, agar plate colony diameter; conditions: 10 ppm, Table 6B
Experimental: (§2) Each plate was inoculated with a spore suspension or with a small piece of agar (1 mm) from the margin of an actively growing colony of the test fungus. The fungi employed are listed below. After incubation at 22° C. and 70% relative humidity during a period long enough to allow significant growth of untreated controls, the diameters of the fungus colonies were measured and scored using the following rating system: 0=free of fungal growth 1=25% of fungal growth compared to untreated 2=50% of fungal growth compared to untreated 3=75% of fungal growth compared to untreated 4=Growth equal to that of untreated The scores measured for wood preservation efficacy of the compounds of this invention are listed in Tables 6a and 6b. In these Tables, the lower numbers are the most preferred species. Trichoderma viride

[4] = system: Aspergillus niger; assay: as above; conditions: 10 ppm, Table 6B
Experimental: as §2, with “Aspergillus niger” for “Trichoderma viride”

[5] = system: Aureobasidium pullulans; assay: as above; design: key: 1=25%, 2=50%, 3=75%, 4=100% of untreated growth; lower better; conditions: 10 ppm, Table 6B
Experimental: (§3) The compounds shown in Table 1 were dissolved in 50% ethanol and then diluted with sterile water to give the required concentrations of 1 and 10 ppm in the test agar plates. Malt extract sugar (3%) was added aseptically and uniform distribution was obtained by shaking. Each plate was inoculated with a spore suspension or with a small piece of agar (1 mm) from the margin of an actively growing colony of the test fungus. The fungi employed are listed below. After incubation at 22° C. and 70% relative humidity during a period long enough to allow significant growth of untreated controls, the diameters of the fungus colonies were measured and scored using the following rating system:
(§4) 1=25% of fungal growth compared to untreated
(§5) 2=50% of fungal growth compared to untreated
(§6) 3=75% of fungal growth compared to untreated
(§7) 4=Growth equal to that of untreated
(§8) In these Tables, the lower numbers are the most preferred species.

[6] = system: Chaetomium globosum; assay: as above; conditions: 10 ppm, Table 6B
Experimental: as §2, with “Chaetomium globosum” for “Trichoderma viride”

[7] = system: Mucor sp.; assay: as above; conditions: 100 ppm, Table 6B
Experimental: as §2, with “Mucor sp.” for “Trichoderma viride”

[8] = system: Streptomyces albus; assay: Wood preservative efficacy against bacteria and yeasts, tryptose agar plates; design: key: 0 = growth equal to control, 1 = inhibition, 2 = no growth
Experimental: as §1, with “Streptomyces albus” for “Flavobacterium sp.”, “pos)” for “neg)”

[9] = system: Penicillium islandicum; assay: Wood preservative efficacy against fungi, agar plate colony diameter; design: key: 1 = 25%, 2 = 50%, 3 = 75%, 4 = 100% of untreated fungal growth; conditions: 10 ppm, Table 6B
Experimental: as §3, §4, §5, §6, §7, §8

[10] = system: Bacillus cereus mycoides; design: scale not given here
[11] = system: Aspergillus flavus; assay: Wood preservative efficacy against fungi, agar plate colony diameter; conditions: 10 ppm, Table 6B
Experimental: as §2, with “Aspergillus flavus” for “Trichoderma viride”

With CCOc1ccc(C2=NOCC[S+]2C)cc1 (stereo not drawn) [Compound 28] the “Score of bactericidal activity, Flavobacter” value (“Score … Flavobacter” below) ([1]; 10 ppm in tryptose agar) was 0, the “Score … Flavobacter” value ([1]; 100 ppm in tryptose agar) was 2 and the “Score of bactericidal activity, E. Coli” value ([2]; 10 ppm in tryptose agar) was 0. The “Score of bactericidal activity, E. Coli” value ([2]; 100 ppm in tryptose agar) was 0, the “Score of fungicidal activity, T. VIRIDE” value [3] was 3 (75% of growth compared to untreated control) and the “Score of fungicidal activity, A. NIGER” value [4] was 4. For the same compound, the “Score of fungicidal activity, A. PULLULANS” value [5] was 4, the “Score of fungicidal activity, C. GLOBOSUM” value [6] was 4 and the “Score of fungicidal activity, MUCOR SP” value [7] was 1 (25% of growth compared to untreated control). For the same compound, the “Score of bactericidal activity, S. albus” value ([8]; 10 ppm in tryptose agar) was 1, the “Score of bactericidal activity, S. albus” value ([8]; 100 ppm in tryptose agar) was 2 and the “Score of fungicidal activity, P. ISLANDICUM” value [9] was 4. The “Score of bactericidal activity, B. cereus mycoides” value (from here on “Score … B. cereus mycoides”) ([10]; 10 ppm in tryptose agar) was 1, the “Score … B. cereus mycoides” value ([10]; 100 ppm in tryptose agar) was 2 and the “Score of fungicidal activity, A. FLAVUS” value [11] was 3 (75% of growth compared to untreated control).

In the case of CCOC(=O)c1ccc(C2=NOCC[S+]2[O-])cc1 (stereo not drawn) [Compound 22], the “Score … Flavobacter” value ([1]; 10 ppm in tryptose agar) is reported as 1, the “Score … Flavobacter” value ([1]; 100 ppm in tryptose agar) is reported as 2 and the “Score of bactericidal activity, E. Coli” value ([2]; 10 ppm in tryptose agar) is reported as 0. The “Score of bactericidal activity, E. Coli” value ([2]; 100 ppm in tryptose agar) was 0, the “Score of fungicidal activity, T. VIRIDE” value [3] was 3 (75% of growth compared to untreated control) and the “Score of fungicidal activity, A. NIGER” value [4] was 3 (75% of growth compared to untreated control). The “Score of fungicidal activity, A. PULLULANS” value [5] was 4, the “Score of fungicidal activity, C. GLOBOSUM” value [6] was 4 and the “Score of fungicidal activity, MUCOR SP” value [7] was 0. For the same compound, the “Score of bactericidal activity, S. albus” value ([8]; 10 ppm in tryptose agar) was 1, the “Score of bactericidal activity, S. albus” value ([8]; 100 ppm in tryptose agar) was 2 and the “Score of fungicidal activity, P. ISLANDICUM” value [9] was 2 (50% of growth compared to untreated control). The “Score … B. cereus mycoides” value ([10]; 10 ppm in tryptose agar) was 2, the “Score … B. cereus mycoides” value ([10]; 100 ppm in tryptose agar) was 2 and the “Score of fungicidal activity, A. FLAVUS” value [11] was 2 (50% of growth compared to untreated control).
